Assay results from patent US20220362326A1, “INHIBITING ZD17-JNK I[…] A THERAPY FOR ACUTE MYOCARDIAL INFARCTION” (The University of British Columbia, priority 2019, published 2022).
Ends that are not written are not given here.

Experiments:
[1] = system: primary cardiomyocyte culture; assay: Cell death assays in H2O2-treated primary cardiomyocyte culture; type: cell-based, Sprague Dawley rats; conditions: 10 uM peptide, 30 min before 300 uM H2O2 (4 hrs) and during 12 hr recovery
Method: Hearts were removed from P1-2 Sprague Dawley rats and cut into 1 mm^3 cubes. The heart tissue was then digested in the cell digestion buffer at 37° C. for 4 min and centrifuged at 200 rpm for 1 min to remove the supernatant. The pellet was digested in the cell digestion buffer again at 37° C. until it was fully digested and then centrifuged at 200 rpm for 1 min to remove the debris. The sample was mixed with FBS to neutralize trypsin and collagenase and then centrifuged at 1000 rpm for 5 min to remove the supernatant. Cardiomyocytes were isolated from the sample by differential adhesion and then cultured in plates in the cell culture medium. Primary cardiomyocyte cultures were maintained in the 37° C. incubator with 95% […] and 5% CO2 for 5 days before being used for experiments.
Cell death of primary cardiomyocyte culture was measured using a variety of assays. MTT and the activity of creatine kinase, lactate dehydrogenase, malondialdehyde and superoxide dismutase were measured using commercial kits and according to manufacturer's instructions. Cell apoptosis assays were conducted by treating primary cardiomyocyte culture with the Annexin V-FITC cytotoxicity kit, followed by flow cytometry (BD, FACSlalibur) to determine the apoptosis percentage.
Primary cardiomyocyte cultures were treated with 300 uM H2O2 for 4 hours to induce oxidative stress. Then, cardiomyocytes were placed back in the normal culture medium for 12 hours before cell death analysis. 30 min before H2O2 treatment and during the 12 hour-recovery period, some cardiomyocytes were treated with 10 uM NIMoEsh-Tat peptide.

rat model of AMI [2] = assay: Rat model of AMI: TTC staining and measurement of heart infarct; type: in vivo, Sprague Dawley rats; conditions: rats, 20 mg/kg i.v. immediately after ligation, hearts removed four hours later; vs saline, P<0.01
[3] = system: pig model of transient AMI; assay: Pig model of transient AMI: transthoracic echocardiography; type: in vivo, Chinese Bama miniature pigs; conditions: pigs, 2 mg/kg i.v. 40 min after occlusion and 24 hours after reperfusion, day 30, vs saline
[4] = system: pig model of transient AMI; assay: Pig model of transient AMI: TTC staining and heart infarct; type: in vivo, Chinese Bama miniature pigs; conditions: pigs, 2 mg/kg i.v. twice, day 30, TTC staining; vs saline, P<0.01
[5] = system: pig model of transient AMI; assay: Pig model of transient AMI: histological analysis of hearts (H & E); type: in vivo, Chinese Bama miniature pigs
[6] = pigs, 2 mg/kg i.v. twice; vs saline group
Text: The heart rate (a), electrocardiogram (QRS duration (b), QRS voltage (c), T voltage (d) and ST voltage (e)), and body weight (f) were monitored before artery occlusion, after artery occlusion and after reperfusion. […] The NIMoEsh-Tat group: N=5; the saline group: N=5. Data are presented as mean±S.E.M.
The cardioprotective efficacy of the NIMoEsh-Tat peptide was also investigated in Chinese Bama miniature pigs. Transient AMI was induced in these pigs by occluding the left circumflex coronary artery for 1 hour, followed by blood reperfusion. Pigs received one i.v. injection of the NIMoEsh-Tat peptide (2 mg/kg) or saline 40 min after occlusion and another i.v. injection 24 hours after reperfusion. The pigs were evaluated for heart function on day 30 before they were sacrificed for histological analysis.

rat model of AMI [7] = assay: Rat model of AMI: heart function (hemodynamic) measurement; conditions: rats, 20 mg/kg i.v. at 0, 24 and 48 hours after surgery, measured 4 weeks after last injection
Method: Rats were subjected to AMI by ligation of the left anterior descending coronary artery as described previously (Yu, J. G. et al. Acta Pharmacol Sin 34, 1508-1514, doi:10.1038/aps.2013.147 (2013)). Briefly, rats were anesthetized with 100 mg/kg ketamine hydrochloride and 10 mg/kg diazepam by intraperitoneal injection and then received artificial ventilation using a respirator (Shanghai Alcott Biotech, China, ALC-V8) with a tidal volume of 20 mL and a respiratory rate of 60/min. The heart was exteriorized through the 4th intercostal space and the left anterior descending coronary artery was ligated using a 6-0 suture. Rats were placed back in their home cages after the incision was closed. Sham rats underwent the same protocol except without ligation of the coronary artery.
Hemodynamic assessments in rats were conducted as described by Yu et al. (Acta Pharmacol Sin 34, 1508-1514, doi:10.1038/aps.2013.147 (2013)). Briefly, rats were anesthetized with 1.25 g/kg 25% urethane and a polyethylene catheter connected to a pressure transducer (Powerlab 30, ADlnstruments) was inserted into the right carotid artery and then advanced into the left ventricle cavity. The mean heart rate, systolic blood pressure, left ventricular systolic pressure (LVSP), left ventricular end diastolic pressure (LVEDP), and maximal rates of pressure rise (+dp/dtmax) and decline (−dp/dtmax) were recorded for 30 min and then analyzed.
Rats receiving sham surgery were used as control.

[8] = male pigs, 2 mg/kg, N number 5, day 30
[9] = male pigs, 2 mg/kg, N number 5, + = slight (almost invisible)
[10] = male pigs, 2 mg/kg, N number 5, ++ = mild (visible but very small)

WAAYRTHSVDYGRKKRRQRRR [NIMoEsh-Tat, WAAYRTHSVD-YGRKKRRQRRR]
H2O2-induced cell death, cell apoptosis assay (FIG. 1b) ([1]; Annexin V-FITC, flow cytometry): effectively reduced H2O2-induced cell death
CK activity in the culture medium (FIG. 1c) ([1]; vs H2O2 group): did not fully rescue H2O2-induced increase of CK activity, there was a trend of decreased CK activity
H2O2-induced cell death, MTT assay (FIG. 1a) ([1]; vs H2O2 group): effectively reduced H2O2-induced cell death
LDH activity in the culture medium (FIG. 1e) ([1]; vs H2O2 group): effectively reduced H2O2-induced cell death
MDA activity in cultured cells (FIG. 1d) ([1]; vs H2O2 group): effectively reduced H2O2-induced cell death
SOD activity in cultured cells (FIG. 1f) ([1]; vs H2O2 group): effectively reduced H2O2-induced cell death
percentage of heart tissue infarct after AMI (FIG. 2a-b) (rat model of AMI [2]): significantly reduced
stroke volume (SV, FIG. 3c) ([3]; P<0.001): rescued AMI-induced function deficits
ejection fraction (EF, FIG. 3d) ([3]; P<0.05): rescued AMI-induced function deficits
volume of AMI-induced heart infarct (FIGS. 3e and 3f) [4]: reduced the volume of AMI-induced heart infarct
Atrial fibrillation, Total (number of pigs) [5, 8]: 5
Bleeding, Total (number of pigs) [5, 8]: 4
Granuloma, Total (number of pigs) [5, 8]: 1
Inflammation, Total (number of pigs) [5, 8]: 4
Necrosis, Total (number of pigs) [5, 8]: 4
Pericarditis, Total (number of pigs) [5, 8]: 0
Atrial fibrillation, + (number of pigs) [5, 9]: 2
Bleeding, + (number of pigs) [5, 9]: 4
Granuloma, + (number of pigs) [5, 9]: 1
Inflammation, + (number of pigs) [5, 9]: 4
Pericarditis, + (number of pigs) [5, 9]: 0
Atrial fibrillation, ++ (number of pigs) [5, 10]: 2
Inflammation, ++ (number of pigs) [5, 10]: 0
Necrosis, ++ (number of pigs) [5, 10]: 0
Atrial fibrillation, +++ (number of pigs) ([5]; male pigs, 2 mg/kg, N number 5, +++ = moderate (visible and quantifiable)): 1
Necrosis, grade not given (number of pigs) ([5]; male pigs, 2 mg/kg, N number 5, grade cell empty, line above ++): 4
Pericarditis, grade not given (number of pigs) ([5]; male pigs, 2 mg/kg, N number 5, grade cell empty, line below +): 0
AMI-induced pathology observed under microscope, summary ([5]; pigs, 2 mg/kg i.v. twice, day 30, vs saline controls): much less AMI-induced pathology
fibrillation in pig heart, H & E image (FIG. 3g) ([5]; pigs, 2 mg/kg i.v. twice, day 30, vs saline-treated pig heart): less fibrillation
body weight recovery after AMI (FIG. 4) [6]: same level of body weight recovery
+dp/dtmax, maximal rate of pressure rise (FIG. 2g) (rat model of AMI [7]; vs saline): rescued heart function after AMI
left ventricular systolic pressure (FIG. 2e) (rat model of AMI [7]; vs saline): rescued heart function after AMI
−dp/dtmax, maximal rate of pressure decline (FIG. 2h) (rat model of AMI [7]; vs saline): rescued heart function after AMI
heart rate (FIG. 2c) (rat model of AMI [7]; vs sham): neither saline or NIMoEsh-Tat peptide changed
systolic blood pressure (FIG. 2d) (rat model of AMI [7]; vs sham): neither saline or NIMoEsh-Tat peptide changed
